# Measured values as given in US12208088B2 (Genentech, Inc., priority 2018, dated 2025).
# Target: HPK1 (Homo sapiens (Human), UniProt Q92918)
# Experiment: HPK1 Lantha binding assay ("Lanth")
# Settings: binding assays; Morrison Ki fit
# How it was run: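 Ki values are from Morrison-equation fitting of 665/615 nm TR-FRET signals, taking enzyme level, tracer level and tracer Kd into account. The assay mix held HPK1 (2 nM), Eu-anti-GST antibody (2 nM) and Tracer222 (15 nM). Incubations were two 1 h steps at 23 °C, on 5-fold serial compound dilutions.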
# HPK1, sequence (Q92918 1-346 limits assumed): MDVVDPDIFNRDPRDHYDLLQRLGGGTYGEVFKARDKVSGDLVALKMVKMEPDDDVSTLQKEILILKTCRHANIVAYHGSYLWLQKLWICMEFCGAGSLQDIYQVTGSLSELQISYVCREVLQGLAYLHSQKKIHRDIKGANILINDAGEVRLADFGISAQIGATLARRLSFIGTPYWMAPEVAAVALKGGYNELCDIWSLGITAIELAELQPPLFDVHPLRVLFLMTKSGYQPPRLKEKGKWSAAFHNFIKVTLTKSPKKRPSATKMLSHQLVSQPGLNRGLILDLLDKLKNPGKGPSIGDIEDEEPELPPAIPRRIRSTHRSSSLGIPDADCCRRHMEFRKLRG
row,SMILES,Ki
1,"CC1Nc2ncc(-c3ccc(N)c(C(=O)N(C)C)c3F)cc2C12CC2 (stereo not shown) [Compound 15, 6-Amino-2-fluoro-N,N-dimethyl-3-(2′-methyl-1′,2′-dihydrospiro[cyclopropane-1,3′-pyrrolo[2,3-b]pyridin]-5′-yl)benzamide]",0.122 µM
2,"CN(C)C(=O)c1cc(CO)cc(-c2cnc3c(c2)C2(CC2)CN3)c1 [Compound 16, 3-(1′,2′-dihydrospiro[cyclopropane-1,3′-pyrrolo[2,3-b]pyridin]-5′-yl)-5-(hydroxymethyl)-N,N-dimethylbenzamide]",0.521 µM
3,"Nc1ccc(-c2cnc3c(c2)C2(CC2)CN3)c(F)c1C(=O)N1CCCC1CO (stereo not shown) [Compound 17, (6-amino-3-(1′,2′-dihydrospiro[cyclopropane-1,3′-pyrrolo[2,3-b]pyridin]-5′-yl)-2-fluorophenyl)(2-(hydroxymethyl)pyrrolidin-1-yl)methanone]",0.0328 µM
4,"CN(C)C(=O)c1cc(-c2cnc3c(c2)C2(CC2)CN3)ccc1CO [Compound 18, 5-(1′,2′-dihydrospiro[cyclopropane-1,3′-pyrrolo[2,3-b]pyridin]-5′-yl)-2-(hydroxymethyl)-N,N-dimethylbenzamide]",0.259 µM
5,"CN(C(=O)c1c(N)ccc(-c2cnc3c(c2)C2(CC2)CN3)c1F)C(C)(C)CO [Compound 19, 6-amino-3-(1′,2′-dihydrospiro[cyclopropane-1,3′-pyrrolo[2,3-b]pyridin]-5′-yl)-2-fluoro-N-(1-hydroxy-2-methylpropan-2-yl)-N-methylbenzamide]",0.0208 µM
6,"CC1(O)C(=O)Nc2ccc(-c3cnc4c(c3)C3(CC3)CN4)cc21 (stereo not shown) [Compound 20, 5-(1′,2′-dihydrospiro[cyclopropane-1,3′-pyrrolo[2,3-b]pyridin]-5′-yl)-3-hydroxy-3-methylindolin-2-one]",0.212 µM
7,"CN(C)S(=O)(=O)c1cccc(-c2cnc3c(c2)C2(CC2)CN3)c1F [Compound 21, 3-(1′,2′-dihydrospiro[cyclopropane-1,3′-pyrrolo[2,3-b]pyridin]-5′-yl)-2-fluoro-N,N-dimethylbenzenesulfonamide]",0.297 µM
8,"CNS(=O)(=O)c1cccc(-c2cnc3c(c2)C2(CC2)CN3)c1F [Compound 22, 3-(1′,2′-dihydrospiro[cyclopropane-1,3′-pyrrolo[2,3-b]pyridin]-5′-yl)-2-fluoro-N-methylbenzenesulfonamide]",0.869 µM
9,"O=C1Nc2ccc(-c3cnc4c(c3)C3(CC3)CN4)cc2C1(O)C1CC1 (stereo not shown) [Compound 23, 3-cyclopropyl-5-(1′,2′-dihydrospiro[cyclopropane-1,3′-pyrrolo[2,3-b]pyridin]-5′-yl)-3-hydroxyindolin-2-one]",0.184 µM
10,"CN(C)C(=O)c1c(N)ccc(-c2cnc3c(c2)C2(CN3)CC2(C)C)c1F (stereo not shown) [Compound 24, 6-Amino-3-(2,2-dimethyl-1′,2′-dihydrospiro[cyclopropane-1,3′-pyrrolo[2,3-b]pyridin]-5′-yl)-2-fluoro-N,N-dimethylbenzamide]",0.0887 µM
11,"CN(C)C(=O)c1c(N)ccc(-c2cnc3c(c2)C2(CN3)C3COCC32)c1F (stereo not shown) [Compound 26, 6-amino-3-(1′,2′-dihydro-3-oxaspiro[bicyclo[3.1.0]hexane-6,3′-pyrrolo[2,3-b]pyridin]-5′-yl)-2-fluoro-N,N-dimethylbenzamide]",0.446 µM
12,"CN(C)C(=O)c1c(N)ccc(-c2cnc3c(c2Cl)C2(CCCC2)CN3)c1F [Compound 27, 6-Amino-3-(4′-chloro-1′,2′-dihydrospiro[cyclopentane-1,3′-pyrrolo[2,3-b]pyridin]-5′-yl)-2-fluoro-N,N-dimethylbenzamide]",0.00671 µM
13,"CN(C)C(=O)c1c(N)ccc(-c2cnc3c(c2Cl)C2(CC=CC2)CN3)c1F [Compound 28, 6-Amino-3-(4′-chloro-1′,2′-dihydrospiro[cyclopentane-1,3′-pyrrolo[2,3-b]pyridin]-3-en-5′-yl)-2-fluoro-N,N-dimethylbenzamide]",0.00695 µM
14,"CN(CC(C)(C)O)C(=O)c1c(N)ccc(-c2cnc3c(c2)C2(CC2)CN3)c1F [Compound 29, 6-amino-3-(1′,2′-dihydrospiro[cyclopropane-1,3′-pyrrolo[2,3-b]pyridin]-5′-yl)-2-fluoro-N-(2-hydroxy-2-methylpropyl)-N-methylbenzamide]",0.03 µM
15,"Cc1c(-c2ccc(N)c(C(=O)N(C)C)c2F)cnc2c1C1(CC1)CN2 [Compound 30, 6-Amino-2-fluoro-N,N-dimethyl-3-(4′-methyl-1′,2′-dihydrospiro[cyclopropane-1,3′-pyrrolo[2,3-b]pyridin]-5′-yl)benzamide]",0.0539 µM
16,"COc1c(-c2ccc(N)c(C(=O)N(C)C)c2F)cnc2c1C1(CC1)CN2 [Compound 31, 6-Amino-2-fluoro-3-(4′-methoxy-1′,2′-dihydrospiro[cyclopropane-1,3′-pyrrolo[2,3-b]pyridin]-5′-yl)-N,N-dimethylbenzamide]",0.0286 µM
17,"Nc1ccc(-c2cnc3c(c2Cl)C2(CC2)CN3)cc1C(=O)N1C2CCC1CC2 [Compound 32, (2-Amino-5-(4′-chloro-1′,2′-dihydrospiro[cyclopropane-1,3′-pyrrolo[2,3-b]pyridin]-5′-yl)phenyl)(7-azabicyclo[2.2.1]heptan-7-yl)methanone]",0.0128 µM
18,"Nc1cc(-c2cnc3c(c2Cl)C2(CC2)CN3)cc(-c2ncccc2CO)c1 [Compound 34, (2-(3-Amino-5-(4′-chloro-1′,2′-dihydrospiro[cyclopropane-1,3′-pyrrolo[2,3-b]pyridin]-5′-yl)phenyl)pyridin-3-yl)methanol]",0.00615 µM
19,"CN(CCO)C(=O)c1c(N)ccc(-c2cnc3c(c2Cl)C2(CC2)CN3)c1F [Compound 36, 6-Amino-3-(4′-chloro-1′,2′-dihydrospiro[cyclopropane-1,3′-pyrrolo[2,3-b]pyridin]-5′-yl)-2-fluoro-N-(2-hydroxyethyl)-N-methylbenzamide]",0.0047 µM
20,"CN(C)C(=O)c1c(N)ccc(-c2cnc3c(c2Cl)C2(CCC2)CN3)c1F [Compound 37, 6-Amino-3-(4′-chloro-1′,2′-dihydrospiro[cyclobutane-1,3′-pyrrolo[2,3-b]pyridin]-5′-yl)-2-fluoro-N,N-dimethylbenzamide]",0.0022 µM
21,CN(C)C(=O)c1c(N)ccc(-c2cnc3c(c2Cl)[C@]2(CC[C@@H](O)C2)CN3)c1F [Compound 38a],0.0242 µM
22,"CN(C)C(=O)c1c(N)ccc(-c2cnc3c(c2Cl)[C@]2(CC[C@H](O)C2)CN3)c1F [Compound 38c, 6-Amino-3-((1R,3S)-4′-chloro-3-hydoxy-1′,2′-dihydrospiro[cyclopentane-1,3′-pyrrolo[2,3-b]pyridin]5′-yl)-2-fluoro-N,N-dimethylbenzamide]",0.00847 µM
23,"CN(C)C(=O)c1c(N)ccc(-c2cnc3c(c2Cl)C2(CN3)CC2CO)c1F (stereo not shown) [Compound 39, 6-Amino-3-(4′-chloro-2-(hydroxymethyl)-1′,2′-dihydrospiro[cyclopropane-1,3′-pyrrolo[2,3-b]pyridin]-5′-yl)-2-fluoro-N,N-dimethylbenzamide]",0.0172 µM

# More lines, now with the values ahead:
row,Ki,SMILES
1,0.0277 µM,"CN(C)C(=O)c1c(N)ccc(-c2cnc3c(c2Cl)[C@@]2(CN3)C[C@H]2CO)c1F [Compound 39a, 6-Amino-3-((1R,2R)-4′-chloro-2-(hydroxymethyl)-1′,2′-dihydrospiro[cyclopropane-1,3′-pyrrolo[2,3-b]pyridin]-5′-yl)-2-fluoro-N,N-dimethylbenzamide]"
2,0.0405 µM,"CN(C)C(=O)c1c(N)ccc(-c2cnc3c(c2Cl)[C@]2(CN3)C[C@@H]2CO)c1F [Compound 39b, 6-Amino-3-((1S,2S)-4′-chloro-2-(hydroxymethyl)-1′,2′-dihydrospiro[cyclopropane-1,3′-pyrrolo[2,3-b]pyridin]-5′-yl)-2-fluoro-N,N-dimethylbenzamide]"
3,0.0153 µM,"CN(C)C(=O)c1c(N)ccc(-c2cnc3c(c2Cl)C2(CN3)Cc3ccncc3C2)c1F (stereo not shown) [Compound 40, 6-Amino-3-(4′-chloro-1′,2′,5,7-tetrahydrospiro[cyclopenta[c]pyridine-6,3′-pyrrolo[2,3-b]pyridin]-5′-yl)-2-fluoro-N,N-dimethylbenzamide]"
4,0.1 µM,"O=C1CNCCN1c1cccc(-c2cnc3c(c2)C2(CC2)CN3)c1 [Compound 42, 1-(3-(1′,2′-Dihydrospiro[cyclopropane-1,3′-pyrrolo[2,3-b]pyridin]-5′-yl)phenyl)piperazin-2-one]"
5,0.0815 µM,"OCc1cccnc1-c1cccc(-c2cnc3c(c2)C2(CC2)CN3)c1 [Compound 43, (2-(3-(1′,2′-Dihydrospiro[cyclopropane-1,3′-pyrrolo[2,3-b]pyridin]-5′-yl)phenyl)pyridin-3-yl)methanol]"
6,0.0044 µM,"CN(CCO)C(=O)c1c(N)ccc(-c2cnc3c(c2Cl)C2(CCC2)CN3)c1F [Compound 44, 6-Amino-3-(4′-chloro-1′,2′-dihydrospiro[cyclobutane-1,3′-pyrrolo[2,3-b]pyridin]-5′-yl)-2-fluoro-N-(2-hydroxyethyl)-N-methylbenzamide]"
7,0.0437 µM,"CN(CCO)C(=O)c1cccc(-c2cnc3c(c2Cl)C2(CC2)CN3)c1F [Compound 45, 3-(4′-Chloro-1′,2′-dihydrospiro[cyclopropane-1,3′-pyrrolo[2,3-b]pyridin]-5′-yl)-2-fluoro-N-(2-hydroxyethyl)-N-methylbenzamide]"
8,0.0386 µM,"CCN(CCO)C(=O)c1cccc(-c2cnc3c(c2Cl)C2(CC2)CN3)c1F [Compound 46, 3-(4′-Chloro-1′,2′-dihydrospiro[cyclopropane-1,3′-pyrrolo[2,3-b]pyridin]-5′-yl)-N-ethyl-2-fluoro-N-(2-hydroxyethyl)benzamide]"
9,0.0885 µM,"O=C(c1cccc(-c2cnc3c(c2Cl)C2(CC2)CN3)c1F)N(CCO)CCO [Compound 47, 3-(4′-Chloro-1′,2′-dihydrospiro[cyclopropane-1,3′-pyrrolo[2,3-b]pyridin]-5′-yl)-2-fluoro-N,N-bis(2-hydroxyethyl)benzamide]"
10,0.151 µM,"O=C(c1cccc(-c2cnc3c(c2Cl)C2(CC2)CN3)c1F)N1CCNCC1 [Compound 48, (3-(4′-Chloro-1′,2′-dihydrospiro[cyclopropane-1,3′-pyrrolo[2,3-b]pyridin]-5′-yl)-2-fluorophenyl)(piperazin-1-yl)methanone]"
11,0.0553 µM,O=C(c1cccc(-c2cnc3c(c2Cl)C2(CC2)CN3)c1F)N1CC(O)C1 [Compound 49]
